Assay results: ChEMBL document CHEMBL1139929, “Penicillin-bound polyacrylate nanoparticles: restoring the activity of beta-lactam antibiotics against MRSA” (2007)
In brackets after ≈: the same amount, converted by molar mass.

Key:
Staphylococcus aureus [1] = assay: Antibacterial activity against Staphylococcus aureus ATCC 25923 after 24 hrs by broth dilution assay; assay type: functional; details: ATCC 25923, 24 h
Staphylococcus aureus [2] = assay: Antibacterial activity against methicillin-resistant Staphylococcus aureus ATCC 43300 after 24 hrs by broth dilution assay; assay type: functional; details: ATCC 43300, 24 h

CC1(C)S[C@@H]2[C@H](NC(=O)Cc3ccccc3)C(=O)N2[C@H]1C(=O)O [PENICILLIN G]
MIC (Staphylococcus aureus [1]): 0.012 µg/mL (≈ 0.0359 µM) | MIC (Staphylococcus aureus [2]): 16 µg/mL (≈ 47.8 µM)
